# Measured values from US3996360A, “Piperazine compounds” (Knoll A.G. Chemische Fabriken, priority 1974, dated 1976).
# Where two headings read alike, the source gives them in different places.
# What was measured:
# [1] = system: left auricle of the guinea pig; experiment: Functional refractory period of the left auricle, paired electrical stimulation (method of Govier); conditions: for percent lengthening of refractory period at 0.01 µM: Cavia porcellus, read-out: Antiarrhythmic Effect (Lengthening of the refractory period in percent); for percent lengthening of refractory period at 0.01 µM / Antiarrhythmic Effect (Lengthening of the refractory period in percent): Table 2, dose in each case 10^^-5 millimoles/liter; for Antiarrhythmic Effect (Lengthening of the Refractory Period) ED25: Table 1, effective dose which lengthens the refractory period by 25 percent
# From the text: Evidence of the anti-arrhythmic effect of the new compounds is obtained in experimental animals by determination of the functional refractory period of the left auricle of the guinea pig with the aid of paired electrical stimulation employing the method of W. C. Govier, J. Pharmacol. Exp. Therap. 148, 100 - 105 (1965). In this experimental arrangement, those anti-arrhythmic agents already known for use in therapy, of differing structure and of different points of attack in the human, all distinguish themselves by lengthening the functional refractory period. The method additionally permits a determination of the effects of the substances on the contractile force of the heart muscle [cf. Reuter and Heeg, Naunyn-Schmiedeberg's Arch. Pharmak. 268, 323 - 333 (1971) and Zettler and Strubelt, Naunyn-Schmiedeberg's Arch. Pharmak. 271, 335 - 345 (1971)].
# The testing of the substances in each case involves up to thirty individual experiments. For the dosage effect relationships, linear regression functions were calculated [A. Lindner, Statistische Methoden, 3rd Edition, Birkhaeuser Verlag, Basel (1969)], wherein the maximum percentage deviations from the starting value over a period of up to 60 minutes after addition of the test substance to the bath fluid were employed.
# In following Table 1, column I, the optical isomers of one of the compounds of the invention and known anti-arrhythmic agents are named. Column II reports their anti-arrhythmic effect. Column III gives the inotropic effect, and column IV represents the therapeutic breadth of the compounds. The ED25 is the effective dose which lengthens the refractory period by 25 percent or reduces the contractile force by 25 percent.
# The dose in each case is 10^^-5 millimoles/liter.
# [2] = system: left auricle of the guinea pig; experiment: Inotropic effect: contractile force of the heart muscle (left auricle); conditions: Table 1; for Inotropic Effect (Decrease in Contractile Force) ED25: effective dose which reduces the contractile force by 25 percent; for Therapeutic Breadth (III/II): ratio inotropic ED25 / antiarrhythmic ED25
# From the text: (§1) Evidence of the anti-arrhythmic effect of the new compounds is obtained in experimental animals by determination of the functional refractory period of the left auricle of the guinea pig with the aid of paired electrical stimulation employing the method of […]. Pharmacol. Exp. Therap. 148, 100 - 105 (1965). In this experimental arrangement, those anti-arrhythmic agents already known for use in therapy, of differing structure and of different points of attack in the human, all distinguish themselves by lengthening the functional refractory period. The method additionally permits a determination of the effects of the substances on the contractile force of the heart muscle [cf. Reuter and Heeg, Naunyn-Schmiedeberg's Arch. Pharmak. 268, 323 - 333 (1971) and Zettler and Strubelt, Naunyn-Schmiedeberg's Arch. Pharmak. 271, 335 - 345 (1971)]. The testing of the substances in each case involves up to thirty individual experiments. For the dosage effect relationships, linear regression functions were calculated [[…] Methoden, 3rd Edition, Birkhaeuser Verlag, Basel (1969)], wherein the maximum percentage deviations from the starting value over a period of up to 60 minutes after addition of the test substance to the bath fluid were employed. In following Table 1, column I, the optical isomers of one of the compounds of the invention and known anti-arrhythmic agents are named. Column II reports their anti-arrhythmic effect. Column III gives the inotropic effect, and column IV represents the therapeutic breadth of the compounds. The ED25 is the effective dose which lengthens the refractory period by 25 percent or reduces the contractile force by 25 percent.
# [3] = system: disturbances of the heart-beat rhythm; experiment: Aconitine-induced disturbances of the heart rhythm, long term effect after peroral treatment; type: in vivo; conditions: rats, perorally 400 mg/kg, eight hours after administration, vs untreated animals
# From the text: (§2) The anti-arrhythmic effect of the new compounds can also be determined in intact test animals by experimentally-induced disturbances of the heart rhythm. If rats are continually infused intravenously with aconitine, serious disturbances of the heart-beat rhythm, such as extrasystoles, ventricular tachycardia, and ventricular flutter, which disturbances eventually lead to the death of the test animals, are evident in an electrocardiogram. […] Bianchi et al., Arzneim. Forsch. 18, 845 - 850 (1968); Haas and Busch, Arzneim. Forsch. 18, 401 - 407 (1968); Haas et al., Arzneim. Forsch. 21, 1392 - 1399 (1971); Marmo, Naunyn-Schmiedeberg's Arch. Pharmak. 269, 231 - 247 (1971); Strubelt et al., Naunym-Schmiedeberg's Arch. Pharmak. 271, 346 - 360 ( 1971)].
# [4] = system: disturbances of the heart-beat rhythm; experiment: Aconitine-induced disturbances of the heart rhythm, intravenous pretreatment; type: in vivo, rats; conditions: for ED25 / ED50: Rattus norvegicus; for Ventricular Flutter ED25: dose raising administered aconitine dose by 25 percent prior to ventricular flutter; for Ventricular Flutter ED50: dose raising administered aconitine dose by 50 percent prior to ventricular flutter
# From the text: as §2
# The ED25 and ED50 are the intravenous doses, in mg/kg, which raise the administered aconitine doses, in comparison with the aconitine control, by 25 percent or 50 percent prior to the appearance of extrasystoles, ventricular tachycardia, and ventricular flutter.
# [5] = Inotropic effect: contractile force of the heart muscle (left auricle); set-up: species or system guinea pig; conditions: guinea pig, left auricle, Table 1; ratio inotropic ED25 / antiarrhythmic ED25; read-out: Therapeutic Breadth (III/II)
# From the text: as §1
# [6] = intravenous, dose raising administered aconitine dose by 25 percent prior to ventricular tachycardia, read-out: Ventricular Tachycardia ED25
# [7] = intravenous, dose raising administered aconitine dose by 50 percent prior to ventricular tachycardia, read-out: Ventricular Tachycardia ED50
smiles,measurement,setting,value
"CCN1CCN(C(c2ccccc2)c2ccccc2)CC1(C)Cc1ccc(OC)c(OC)c1 (stereo not drawn) [(L)-1-diphenylmethyl-3-methyl-3-(3,4-dimethoxybenzyl)-4-ethyl-piperazine]",percent lengthening of refractory period at 0.01 µM,[1],48%
"COc1ccc(CC2(C)CN(C(c3ccccc3)c3ccc(Cl)cc3)CCN2CCO)cc1OC (stereo not drawn) [1-(p-chlorophenyl-phenylmethyl)-3-methyl-3-(3,4-dimethoxybenzyl)-4-hydroxyethyl-piperazine]",percent lengthening of refractory period at 0.01 µM,[1],55%
"CCCN1CCN(C(c2ccccc2)c2ccccc2)CC1(C)Cc1ccc(OC)c(OC)c1 (stereo not drawn) [(D)-1-diphenylmethyl-3-methyl-3-(3,4-dimethoxybenzyl)-4-n-propyl-piperazine]",percent lengthening of refractory period at 0.01 µM,[1],51%
"COc1ccc(CC2(C)CN(C(c3ccccc3)c3ccc(Cl)cc3)CCN2)cc1OC (stereo not drawn) [1-(p-chlorophenyl-phenylmethyl)-3-methyl-3-(3,4-dimethoxybenzyl)-piperazine]",percent lengthening of refractory period at 0.01 µM,[1],28%
"CCCCN1CCN(C(c2ccccc2)c2ccccc2)CC1(C)Cc1ccc(OC)c(OC)c1 (stereo not drawn) [(D)-1-diphenylmethyl-3-methyl-3-(3,4-dimethoxybenzyl)-4-n-butyl-piperazine]",percent lengthening of refractory period at 0.01 µM,[1],31%
"COc1ccc(CC2(C)CN(C(c3ccccc3)c3ccccc3)CCN2)cc1OC (stereo not drawn) [(D)-1-diphenylmethyl-3-methyl-3-(3,4-dimethoxybenzyl)-pipera] [(D)-1-diphenylmethyl-3-methyl-3-(3,4-dimethoxybenzyl)-piperazine]",Antiarrhythmic Effect (Lengthening of the refractory period in percent),[1],31%
"CC[C@H]1[C@@H]2C[C@H]3[C@@H]4N(C)c5ccccc5[C@]45C[C@@H]([C@@H]2[C@H]5O)N3[C@@H]1O [Ajmaline, reference compound]",percent lengthening of refractory period at 0.01 µM,[1],14%
"COc1ccc(CC2(C)CN(C(c3ccccc3)c3ccccc3)CCN2)cc1OC (stereo not drawn) [1-diphenylmethyl-3-methyl-3-(3,4-dimethoxybenzyl)-piperazine] [listing 1 of 2 here]",effectiveness (in words),[1],outstanding
"CCN1CCN(C(c2ccccc2)c2ccccc2)CC1(C)Cc1ccc(OC)c(OC)c1 (stereo not drawn) [(D)-1-diphenylmethyl-3-methyl-3-(3,4-dimethoxybenzyl)-4-ethy] [(D)-1-diphenylmethyl-3-methyl-3-(3,4-dimethoxybenzyl)-4-ethyl-piperazine]",Antiarrhythmic Effect (Lengthening of the refractory period in percent),[1],50%
"COc1ccc(CC2(C)CN(C(c3ccccc3)c3ccccc3)CCN2C)cc1OC (stereo not drawn) [(D)-1-diphenylmethyl-3-methyl-3-(3,4-dimethoxybenzyl)-4-meth] [(D)-1-diphenylmethyl-3-methyl-3-(3,4-dimethoxybenzyl)-4-methyl-piperazine]",Antiarrhythmic Effect (Lengthening of the Refractory Period) ED25,[1],0.0063
same,Antiarrhythmic Effect (Lengthening of the refractory period in percent),[1],50%
same,Inotropic Effect (Decrease in Contractile Force) ED25,[2],0.0093
same,higher dose of aconitine required before the appearance of extrasystoles,[3],68%
same,higher dose of aconitine required before the appearance of ventricular flutter,[3],70%
same,higher dose of aconitine required before the appearance of ventricular tachycardia,[3],75%
"COc1ccc(CC2(C)CN(C(c3ccccc3)c3ccccc3)CCN2C)cc1OC (stereo not drawn) [1-diphenylmethyl-3-methyl-3-(3,4-dimethoxybenzyl)-4-methyl-p] [1-diphenylmethyl-3-methyl-3-(3,4-dimethoxybenzyl)-4-methyl-piperazine]",Antiarrhythmic Effect (Lengthening of the refractory period in percent),[1],64%
C1CCN2C[C@@H]3C[C@@H](CN4CCCC[C@@H]34)[C@H]2C1 [Sparteine],ED25,[4]; [6],4.4 mg/kg
same,ED50,[4]; [7],9.5 mg/kg
same,Extrasystoles ED25,"[4]; intravenous, dose raising administered aconitine dose by 25 percent prior to extrasystoles",+
same,Ventricular Flutter ED25,[4]; intravenous,+
same,Extrasystoles ED50,"[4]; intravenous, dose raising administered aconitine dose by 50 percent prior to extrasystoles",+
same,Ventricular Flutter ED50,[4]; intravenous,+
"CCC[N+]12[C@H](O)[C@@H](CC)[C@@H]3C[C@H]1[C@@H]1N(C)c4ccccc4[C@]14C[C@H]2[C@@H]3[C@H]4O [N-n-propylajmaline, reference compound]",Antiarrhythmic Effect (Lengthening of the Refractory Period) ED25,[1],0.0037
same,Inotropic Effect (Decrease in Contractile Force) ED25,[2],0.0015
same,Therapeutic Breadth (III/II),[2],0.4
"COc1ccc(CC2(C)CN(C(c3ccccc3)c3ccccc3)CCN2C)cc1OC (stereo not drawn) [(D)-1-diphenylmethyl-3-methyl-3-(3,4-dimethoxybenzyl)-4-methyl-piperazine]",selectivity ratio,[5],1.5
same,ED25,"[4]; iv, read-out: Extrasystoles ED25",0.94 mg/kg
same,ED50,"[4]; iv, read-out: Extrasystoles ED50",1.21 mg/kg
same,ED25,"[4]; iv, read-out: Ventricular Flutter ED25",0.84 mg/kg
same,ED50,"[4]; iv, read-out: Ventricular Flutter ED50",1.23 mg/kg
same,ED25,"[4]; iv, read-out: Ventricular Tachycardia ED25",0.94 mg/kg
same,ED50,"[4]; iv, read-out: Ventricular Tachycardia ED50",1.26 mg/kg
"COc1ccc(CC2(C)CN(C(c3ccccc3)c3ccccc3)CCN2CCO)cc1OC (stereo not drawn) [(D)-1-diphenylmethyl-3-methyl-3-(3,4-dimethoxybenzyl)-4-hydr] [(D)-1-diphenylmethyl-3-methyl-3-(3,4-dimethoxybenzyl)-4-hydroxyethyl-piperazine]",Antiarrhythmic Effect (Lengthening of the refractory period in percent),[1],72%
"c1ccc(CN(CC2=NCCN2)c2ccccc2)cc1 [Antazoline, reference compound]",Antiarrhythmic Effect (Lengthening of the Refractory Period) ED25,[1],0.164
same,Inotropic Effect (Decrease in Contractile Force) ED25,[2],0.094
same,selectivity ratio,[5],0.6
"COc1ccc(CC2(C)CN(C(c3ccccc3)c3ccccc3)CCN2)cc1OC (stereo not drawn) [1-diphenylmethyl-3-methyl-3-(3,4-dimethoxybenzyl)-piperazine] [listing 2 of 2 here]",percent lengthening of refractory period at 0.01 µM,[1],46%
"COc1ccc(CC2(C)CN(C(c3ccccc3)c3ccccc3)CCN2CCO)cc1OC (stereo not drawn) [1-diphenylmethyl-3-methyl-3-(3,4-dimethoxybenzyl)-4-hydroxyethylpiperazine]",percent lengthening of refractory period at 0.01 µM,[1],55%
"COc1ccc(CC2(C)CN(C(c3ccccc3)c3ccccc3)CCN2C)cc1OC (stereo not drawn) [(L)-1-diphenylmethyl-3-methyl-3-(3,4-dimethoxybenzyl)-4-meth] [(L)-1-diphenylmethyl-3-methyl-3-(3,4-dimethoxybenzyl)-4-methyl-piperazine]",Antiarrhythmic Effect (Lengthening of the Refractory Period) ED25,[1],0.0056
same,Antiarrhythmic Effect (Lengthening of the refractory period in percent),[1],73%
same,Inotropic Effect (Decrease in Contractile Force) ED25,[2],0.0052
same,Therapeutic Breadth (III/II),[2],0.9
CCN(CC)CCNC(=O)c1ccc(N)cc1 [Procainamide],ED25,"[4]; intravenous, dose raising administered aconitine dose by 25 percent prior to extrasystoles, read-out: Extrasystoles ED25",6.8 mg/kg
same,ED25,[4]; [6],6.8 mg/kg
same,ED50,"[4]; intravenous, dose raising administered aconitine dose by 50 percent prior to extrasystoles, read-out: Extrasystoles ED50",52.6 mg/kg
same,ED50,[4]; [7],29.1 mg/kg
same,Ventricular Flutter ED25,[4]; intravenous,+
same,Ventricular Flutter ED50,[4]; intravenous,+
same,higher dose of aconitine required before the appearance of extrasystoles,[3],16%
same,higher dose of aconitine required before the appearance of ventricular flutter,[3],29%
same,higher dose of aconitine required before the appearance of ventricular tachycardia,[3],12%
